Literature values in PMC10017685 (Nature Communications, 2023).

system: human erythrocytes; set-up: method as in DBAASP; settings: cited from earlier work

Row | Sequence | Class (dedicated toxicity dataset used for toxicity classifier evaluation)
1 | GILSSLLKKLKKWIAK [DBAASP_8917] | 0
2 | GIMSSLMKKLKKIIAK [DBAASP_8901] | 0
3 | GILSSLWKKLKKWIAK [DBAASP_8918] | 0

same assay, conditions: toxicity class label 1 or 0, meaning of the labels not given; DBAASP HC50 data, human erythrocytes; ref DBAASP; cited from earlier work

Row | Sequence | Class (dedicated toxicity dataset used for toxicity classifier evaluation)
4 | ALWKTMLKKLGTM [DBAASP_10093] | 0
5 | GIWSSLLKKLKKIIAK [DBAASP_8911] | 0
6 | FLKGIVGMLGKLF [DBAASP_8203] | 1
7 | ILPYKYPYYPYRR [DBAASP_4763] | 0
8 | GLLKRIATLL [DBAASP_3123] | 0
9 | VKWRWKKWRWKWKWKV [DBAASP_8776] | 0
10 | FIHHIIGGLFSVGKHIHSLIHRRRR [DBAASP_17379] | 1
11 | GLWSKIKKAAKTAGKAALGFVNKMV [DBAASP_14234] | 0
12 | FFPIIAGMAAKVICAITKKC [DBAASP_4211] | 1
13 | FLPIIAGMAAKVICAITKKC [DBAASP_4210] | 1
14 | FLSTALKVAANVVPTLFCKITKKC [DBAASP_1888] | 0
15 | LLKKVLKAAA [DBAASP_7358] | 1
16 | FLGLLFHGVHHVGKWIHGLIHGHH [DBAASP_1001] | 1
17 | WRRRRRRRR [DBAASP_8812] | 0
18 | IFGAILPLALGALKNLIK [DBAASP_3892] | 1
19 | SAVWRWRRFWLRKRK [DBAASP_9989] | 0
20 | VKRWKKWKRKWKKWV [DBAASP_16448] | 0
21 | FLPAIVGAAAKFLPKIFCAISKKC [DBAASP_4213] | 1
22 | VKRWKKWFRKWKKWV [DBAASP_16447] | 0
23 | KLLKKAGKLLKKAGKLLKKAG [DBAASP_13728] | 0
24 | AFALIAGALYRIFHRR [DBAASP_16955] | 0
25 | GLLKRIKWLL [DBAASP_3147] | 0

Row | Sequence | Class (dedicated toxicity dataset used for toxicity classifier evaluation)
26 | GVGKFLHSAKKFGQALVSEIMKS [DBAASP_3770] | 0
27 | KIAKIAGKIAKIAGKIAKIAGKIA [DBAASP_14995] | 1
28 | GFLGSLLKTGLKVGSNLL [DBAASP_2293] | 0
29 | CAKAKAKAGSGAKAKAKAC [DBAASP_351] | 0
30 | WWWLRRIW [DBAASP_10629] | 0
31 | KRRVRWIIW [DBAASP_17712] | 0
32 | GLFDIWAWWRWRR [DBAASP_10051] | 0
33 | GLLKRIKALL [DBAASP_3124] | 0
34 | FLPLVTMLLGKLF [DBAASP_3105] | 1
35 | NLLGSLLKTGLKVGSNLL [DBAASP_5712] | 0
36 | FLGSIVGALASALPSLISKIRN [DBAASP_2209] | 1
37 | GLNALKKVFQGFHEAIKLINNHVQ [DBAASP_6935] | 0
38 | VKKFAWWWAFLKK [DBAASP_11303] | 0
39 | ILGKLLKTAAKLLSNL [DBAASP_4365] | 0
40 | FLRFIGSVIHGIGHLVHHIGVAL [DBAASP_4193] | 0
41 | HFLGTLVNKAKKIL [DBAASP_5023] | 0
42 | ALWKSLLKNVGKA [DBAASP_11806] | 0
43 | FFPIVGKLLSGLF [DBAASP_1882] | 0
44 | ALFKTMLKKLGTMAL [DBAASP_10098] | 0
45 | FLPILAGLAAKIVPKLFCLATKKC [DBAASP_2201] | 1
46 | GLNALKKVFQGIHKAIKLINNHVQ [DBAASP_6925] | 0
47 | FFPGIIKVAGAILPTAICAITKRC [DBAASP_10252] | 0

Row | Sequence | Class (dedicated toxicity dataset used for toxicity classifier evaluation)
48 | GFGSLLGKALRLGANVL [DBAASP_3772] | 0
49 | ILGKLLKTAAGLLSNL [DBAASP_4361] | 1
50 | FLSALWGVAKSLF [DBAASP_18190] | 0
51 | KIAKGALKALKIAKVALKAL [DBAASP_11228] | 1
52 | FFHHIFRGIVHVGKKIHRLVTG [DBAASP_9986] | 0
53 | SAVGRHLRRFLLRKHRKH [DBAASP_7660] | 0
54 | KIAKVALKALKIAKGALKAL [DBAASP_9754] | 0
55 | VRRFPWWAPFLRR [DBAASP_14267] | 0
56 | KIGKALGKALKALGKALGKA [DBAASP_11230] | 1
57 | FLPLLASLFSRLF [DBAASP_4935] | 1
58 | SKVWRHWRRFWHRAHRKL [DBAASP_14980] | 0
59 | FLQHIIGALGHLF [DBAASP_10244] | 0
60 | FLSIIAKVLGSLF [DBAASP_3104] | 1
61 | FFPLIFGALSSILPKIL [DBAASP_18209] | 1
62 | GMLKRIKTLL [DBAASP_8628] | 0
63 | FLKGIKGMLGKLF [DBAASP_9109] | 0
64 | GFKDLLKGAAKALVKTVKF [DBAASP_4910] | 0
65 | KLLKFIKTLL [DBAASP_3151] | 0
66 | ALWKTMLKKLGT [DBAASP_10094] | 0
67 | FLKGIVGMLGKLL [DBAASP_9111] | 0
68 | FLPAIAGLAAKFLPKIFCAITKKC [DBAASP_13908] | 1
69 | NILNTIINLAKKIL [DBAASP_3562] | 0

Row | Sequence | Class (dedicated toxicity dataset used for toxicity classifier evaluation)
70 | GIKDLLKGAAKALVKTVLK [DBAASP_11236] | 0
71 | GLLKAIKTLL [DBAASP_3121] | 0
72 | GLLTRIKTLL [DBAASP_8596] | 0
73 | GWGSFFKKAAHVGKHVGKAALTHYL [DBAASP_1004] | 0
74 | FLGSLFSIGSKLLPGVIKLFQRKKQ [DBAASP_17526] | 1
75 | FKRIVQRIKDFLR [DBAASP_3393] | 0
76 | FLPLIASVAANLVPKIFCKITKKC [DBAASP_3564] | 0
77 | GLLGPLLKIAAKVGKKLL [DBAASP_4925] | 0
78 | GLLGPLLKIAAKVGKNLL [DBAASP_4924] | 0
79 | FLPMLAGLAANFLPKIVCKITKKC [DBAASP_1892] | 1
80 | GWGSIFKHGRHAAKHIGHAAVNHYL [DBAASP_1420] | 0
81 | FLAGLIGGLAKML [DBAASP_1978] | 0
82 | FLQGIIDTVGKWL [DBAASP_18165] | 0
83 | FLPGILKVAAK [DBAASP_16464] | 0
84 | GLFGKILGVGKKVLCGLSGMC [DBAASP_2198] | 0
85 | KKYLLPIVGNLLKSLL [DBAASP_7638] | 0
86 | GFWGKLWEGVKNAI [DBAASP_3479] | 1
87 | GIWKTIKSMGKVFAGAIKQNL [DBAASP_705] | 0
88 | FFFFKKKKK [DBAASP_15834] | 1
89 | FLSKIWDGVKSLL [DBAASP_18168] | 0
